# Measured values taken from patent US10744136B2, “Sulfonamide derivatives as JAK inhibitors” (Avista Pharma Solutions, Inc., priority 2018, dated 2020).
# Molecular target: T1, JAK1 (Homo sapiens, UniProt P23458)
# T1 construct: purchased Thermo Fisher Scientific
# Assay: Z'-LYTE JAK1 kinase screen (Thermo Fisher Scientific)
# Type: biochemical
# Details: 1% DMSO, ATP at Km apparent; for inhibition at 0.01 µM / % Inhibition 10 nM: test compound 10 nM; for inhibition at 0.1 µM / % Inhibition 100 nM: test compound 100 nM; for % Inhibition 1000 nm: test compound 1000 nm (so in the source); for % Inhibition 10 nM: 0.01 µM; for % Inhibition 100 nM: 0.1 µM
# Protocol: The example compounds were screened for Jak1 activity at Thermo Fisher Scientific, using their Z′-Lyte™ protocol, as described below. Selectivity screening against other kinases can be performed following similar procedures. Z′-LYTE Assay Conditions: The Test Compounds are screened in 1% DMSO (final) in the well. Three screening concentrations (10, 100, and 1000 nM) of test compounds were used. Peptide/Kinase Mixtures: All Peptide/Kinase Mixtures are diluted to a 2× working concentration in the appropriate Kinase Buffer (For JAK1, the 2×JAK1/Tyr 06 mixture is prepared in 50 mM HEPES pH 6.5, 0.01% BRIJ-35, 10 mM MgCl2, 1 mM EGTA, 0.02% NaN3. The final 10 μL Kinase Reaction consists of 21.2-91.5 ng JAK1 and 2 μM Tyr 06 in 50 mM HEPES pH 7.0, 0.01% BRIJ-35, 10 mM MgCl2, 1 mM EGTA, 0.01% NaN3. After the 1 hour Kinase Reaction incubation, 5 μL of a 1:128 dilution of Development Reagent A is added). ATP Solution: All ATP Solutions are diluted to a 4× working concentration in Kinase Buffer (50 mM HEPES pH 7.5, 0.01% BRIJ-35, 10 mM MgCl2, 1 mM EGTA). ATP: Km apparent is previously determined using a Z′-LYTE assay. 10× Novel PKC Lipid Mix: 2 mg/ml Phosphatidyl Serine, 0.2 mg/ml DAG in 20 mM HEPES, pH 7.4, 0.3% CHAPS. For 5 mL 10× Novel PKC Lipid Mix: • 1. Add 10 mgs Phosphatidyl Serine (Avanti Polar Lipids Part #8400032C or 840039C) and 1 mg DAG (Avanti Polar Lipids Part #800811C) to a glass tube. • 2. Remove the chloroform from lipid mixture by evaporating to a clear, thin film under a stream of nitrogen. Continuous rotation of the tube, at an angle to ensure maximum surface area of the lipid solution, will promote the thinnest film. • 3. Add 5 mLs resuspension buffer, 20 mM HEPES, 0.3% CHAPS, pH 7.4, to the dried lipid mix • 4. Heat gently to 50-60° C. for 1-2 minutes and vortex in short intervals until the lipids are dissolved to a clear or slightly hazy solution. The lipids are typically in solution after 2-3 heat/vortex cycles. • 5. Cool to room temperature, aliquot into single use volumes and store at −20° C. Assay Protocol Bar-coded Corning, low volume NBS, black 384-well plate (Corning Cat. #4514) • 1. 100 nL—100× Test Compound in 100% DMSO • 2. 2.4 μL—Kinase buffer • 3. 5 μL—2× Peptide/Kinase Mixture • 4. 2.5 μL—4×ATP Solution • 5. 30-second plate shake • 6. 60-minute Kinase Reaction incubation at room temperature • 7. 5 μL—Development Reagent Solution • 8. 30-second plate shake • 9. 60-minute Development Reaction incubation at room temperature • 10. Read on fluorescence plate reader and analyze the data.
# T1 sequence (P23458 whole entry): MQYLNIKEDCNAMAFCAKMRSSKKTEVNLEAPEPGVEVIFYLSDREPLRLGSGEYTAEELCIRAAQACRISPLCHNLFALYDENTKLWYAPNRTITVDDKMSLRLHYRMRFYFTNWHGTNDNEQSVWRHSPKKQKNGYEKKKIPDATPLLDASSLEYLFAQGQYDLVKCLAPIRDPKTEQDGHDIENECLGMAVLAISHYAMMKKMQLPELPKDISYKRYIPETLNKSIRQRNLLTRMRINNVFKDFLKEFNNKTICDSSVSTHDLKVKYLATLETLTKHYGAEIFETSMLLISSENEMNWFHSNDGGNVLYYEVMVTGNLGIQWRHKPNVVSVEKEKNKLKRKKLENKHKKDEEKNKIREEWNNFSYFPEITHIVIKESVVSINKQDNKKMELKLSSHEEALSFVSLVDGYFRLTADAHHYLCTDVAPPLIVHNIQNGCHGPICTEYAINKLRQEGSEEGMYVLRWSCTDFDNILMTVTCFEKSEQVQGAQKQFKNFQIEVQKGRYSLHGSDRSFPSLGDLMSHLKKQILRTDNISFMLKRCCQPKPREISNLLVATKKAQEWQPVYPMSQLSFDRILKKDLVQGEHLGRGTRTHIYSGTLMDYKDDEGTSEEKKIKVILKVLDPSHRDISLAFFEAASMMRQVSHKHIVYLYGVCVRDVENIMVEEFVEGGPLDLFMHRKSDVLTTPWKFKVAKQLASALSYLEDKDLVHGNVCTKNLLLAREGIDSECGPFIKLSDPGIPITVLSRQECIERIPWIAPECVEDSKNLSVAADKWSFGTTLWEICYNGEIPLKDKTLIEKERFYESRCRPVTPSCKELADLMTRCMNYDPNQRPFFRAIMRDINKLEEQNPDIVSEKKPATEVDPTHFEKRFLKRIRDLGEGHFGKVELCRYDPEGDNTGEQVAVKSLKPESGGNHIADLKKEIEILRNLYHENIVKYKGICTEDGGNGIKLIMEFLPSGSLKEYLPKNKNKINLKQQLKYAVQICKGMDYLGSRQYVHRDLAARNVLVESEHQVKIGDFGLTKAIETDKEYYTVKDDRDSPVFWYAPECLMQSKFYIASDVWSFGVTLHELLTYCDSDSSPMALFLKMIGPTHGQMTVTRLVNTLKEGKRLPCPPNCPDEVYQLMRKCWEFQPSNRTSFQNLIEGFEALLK
SMILES,inhibition at 0.01 µM,inhibition at 0.1 µM,% Inhibition 1000 nm,% Inhibition 10 nM,% Inhibition 100 nM
"CCCNS(=O)(=O)C1CC2(CC(N(C)c3ncnc4[nH]ccc34)C2)C1 (stereo not drawn) [Compound 3, 6-[methyl(7H-pyrrolo[2,3-d]pyrimidin-4-yl)amino]-N-propyl-spiro[3.3]heptane-2-sulfonamide]",57%,92%,98%,,
"CN(c1ncnc2[nH]ccc12)C1CC2(C1)CC(S(=O)(=O)N(C)C)C2 (stereo not drawn) [Compound 29, N,N-dimethyl-6-[methyl(7H-pyrrolo[2,3-d]pyrimidin-4-yl)amino]spiro[3.3]heptane-2-sulfonamide]",55%,92%,98%,,
"CN(c1ncnc2[nH]ccc12)C1CC2(C1)CC(S(=O)(=O)NC(C)(C)C)C2 (stereo not drawn) [Compound 8, N-tert-butyl-6-[methyl(7H-pyrrolo[2,3-d]pyrimidin-4-yl)amino]spiro[3.3]heptane-2-sulfonamide]",37%,82%,94%,,
"CN(c1ncnc2[nH]ccc12)C1CC2(CC(NS(=O)(=O)CCC(F)(F)F)C2)C1 (stereo not drawn) [Compound 21, 3,3,3-trifluoro-N-[2-[methyl(7H-pyrrolo[2,3-d]pyrimidin-4-yl)amino]spiro[3.3]heptan-6-yl]propane-1-sulfonamide]",46%,85%,98%,,
"CNS(=O)(=O)C1CC2(CC(N(C)c3ncnc4[nH]cnc34)C2)C1 (stereo not drawn) [Compound 24, N-methyl-6-[methyl(9H-purin-6-yl)amino]spiro[3.3]heptane-2-sulfonamide]",4%,21%,72%,,
"CN(c1ncnc2[nH]ccc12)C1CC2(C1)CC(S(=O)(=O)NC1CCC1)C2 (stereo not drawn) [Compound 9, N-cyclobutyl-6-[methyl(7H-pyrrolo[2,3-d]pyrimidin-4-yl)amino]spiro[3.3]heptane-2-sulfonamide]",64%,93%,99%,,
"CN(c1ncnc2[nH]ccc12)C1CC2(C1)CC(S(=O)(=O)N1CCCC1)C2 (stereo not drawn) [Compound 30, N-methyl-N-(2-pyrrolidin-1-ylsulfonylspiro[3.3]heptan-6-yl)-7H-pyrrolo[2,3-d]pyrimidin-4-amine]",43%,89%,99%,,
"CN(c1ncnc2[nH]ccc12)C1CC2(C1)CC(S(N)(=O)=O)C2 (stereo not drawn) [Compound 28, 6-[methyl(7H-pyrrolo[2,3-d]pyrimidin-4-yl)amino]spiro[3.3]heptane-2-sulfonamide]",13%,60%,94%,,
"CCCS(=O)(=O)NC1CC2(C1)CC(N(C)c1ncnc3[nH]ccc13)C2 (stereo not drawn) [Compound 17, N-[2-[methyl(7H-pyrrolo[2,3-d]pyrimidin-4-yl)amino]spiro[3.3]heptan-6-yl]propane-1-sulfonamide]",38%,83%,95%,,
"CC(C)S(=O)(=O)NC1CC2(C1)CC(N(C)c1ncnc3[nH]ccc13)C2 (stereo not drawn) [Compound 18, N-[2-[methyl(7H-pyrrolo[2,3-d]pyrimidin-4-yl)amino]spiro[3.3]heptan-6-yl]propane-2-sulfonamide]",23%,71%,94%,,
"CN(c1ncnc2[nH]ccc12)C1CC2(CC(NS(=O)(=O)C3CCCC3)C2)C1 (stereo not drawn) [Compound 20, N-[2-[methyl(7H-pyrrolo[2,3-d]pyrimidin-4-yl)amino]spiro[3.3]heptan-6-yl]cyclopentanesulfonamide]",33%,82%,97%,,
"CC(C)CS(=O)(=O)NC1CC2(C1)CC(N(C)c1ncnc3[nH]ccc13)C2 (stereo not drawn) [Compound 19, 2-methyl-N-[2-[methyl(7H-pyrrolo[2,3-d]pyrimidin-4-yl)amino]spiro[3.3]heptan-6-yl]propane-1-sulfonamide]",27%,73%,94%,,
"CN(c1ncnc2[nH]ccc12)C1CC2(CC(NS(=O)(=O)c3ccccc3Cl)C2)C1 (stereo not drawn) [Compound 12, 2-chloro-N-[2-[methyl(7H-pyrrolo[2,3-d]pyrimidin-4-yl)amino]spiro[3.3]heptan-6-yl]benzenesulfonamide]",15%,60%,90%,,

# Other lines, results leading:
inhibition at 0.01 µM,inhibition at 0.1 µM,% Inhibition 1000 nm,% Inhibition 10 nM,% Inhibition 100 nM,SMILES
66%,94%,97%,,,"CCS(=O)(=O)NCC1CC2(C1)CC(N(C)c1ncnc3[nH]ccc13)C2 (stereo not drawn) [Compound 23, N-((6-(methyl(7H-pyrrolo[2,3-d]pyrimidin-4-yl)amino)spiro[3.3]heptan-2-yl)methyl)ethanesulfonamide]"
31%,78%,95%,,,"CN(c1ncnc2[nH]ccc12)C1CC2(CC(NS(C)(=O)=O)C2)C1 (stereo not drawn) [Compound 15, N-[2-[methyl(7H-pyrrolo[2,3-d]pyrimidin-4-yl)amino]spiro[3.3]heptan-6-yl]methanesulfonamide]"
,,98%,77%,96%,"CNS(=O)(=O)C1CC2(CC(N(C)c3ncnc4[nH]ccc34)C2)C1 (single isomer, unassigned; enantiomer a) [Compound 26, (Enantiomer A)-N-methyl-6-[methyl(7H-pyrrolo[2,3-d]pyrimidin-4-yl)amino]spiro[3.3]heptane-2-sulfonamide]"
23%,75%,95%,,,"CC(C)NS(=O)(=O)C1CC2(CC(N(C)c3ncnc4[nH]ccc34)C2)C1 (stereo not drawn) [Compound 4, N-isopropyl-6-[methyl(7H-pyrrolo[2,3-d]pyrimidin-4-yl)amino]spiro[3.3]heptane-2-sulfonamide]"
,,89%,12%,52%,"CNS(=O)(=O)C1CC2(CC(N(C)c3ncnc4[nH]ccc34)C2)C1 (single isomer, unassigned; enantiomer b) [Compound 27, (Enantiomer B)-N-methyl-6-[methyl(7H-pyrrolo[2,3-d]pyrimidin-4-yl)amino]spiro[3.3]heptane-2-sulfonamide]"
52%,84%,97%,,,"CN(c1ncnc2[nH]ccc12)C1CC2(C1)CC(S(=O)(=O)NC1CCCC1)C2 (stereo not drawn) [Compound 10, N-cyclopentyl-6-[methyl(7H-pyrrolo[2,3-d]pyrimidin-4-yl)amino]spiro[3.3]heptane-2-sulfonamide]"
28%,76%,96%,,,"CCS(=O)(=O)NC1CC2(C1)CC(N(C)c1ncnc3[nH]ccc13)C2 (stereo not drawn) [Compound 16, N-[2-[methyl(7H-pyrrolo[2,3-d]pyrimidin-4-yl)amino]spiro[3.3]heptan-6-yl]ethanesulfonamide]"
42%,88%,97%,,,"CC(C)CNS(=O)(=O)C1CC2(CC(N(C)c3ncnc4[nH]ccc34)C2)C1 (stereo not drawn) [Compound 7, N-isobutyl-6-[methyl(7H-pyrrolo[2,3-d]pyrimidin-4-yl)amino]spiro[3.3]heptane-2-sulfonamide]"
52%,90%,98%,,,"CCNS(=O)(=O)C1CC2(CC(N(C)c3ncnc4[nH]ccc34)C2)C1 (stereo not drawn) [Compound 2, N-ethyl-6-[methyl(7H-pyrrolo[2,3-d]pyrimidin-4-yl)amino]spiro[3.3]heptane-2-sulfonamide]"
27%,77%,95%,,,"CN(c1ncnc2[nH]ccc12)C1CC2(CC(NS(=O)(=O)c3ccc(Cl)cc3)C2)C1 (stereo not drawn) [Compound 13, 4-chloro-N-[2-[methyl(7H-pyrrolo[2,3-d]pyrimidin-4-yl)amino]spiro[3.3]heptan-6-yl]benzenesulfonamide]"
